Source: PubChem BioAssay (NCI)
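Protocol summary: plate cells (96-well), add compound at 5 concentrations, incubate 48 h, interpolate endpoints linearly. GI50 = concentration required for 50% inhibition of growth. TGI marks complete inhibition of growth.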

Assays:
Experiment in all cases: NCI anticancer screen, dose series, 48 h
HT29 colon = tested on: HT29 colon
K-562 leukemia = tested on: K-562 leukemia
LOX IMVI melanoma = tested on: LOX IMVI melanoma
M14 melanoma = tested on: M14 melanoma
SF-268 CNS = tested on: SF-268 CNS
SF-295 CNS = tested on: SF-295 CNS
SK-MEL-5 melanoma = tested on: SK-MEL-5 melanoma
UO-31 renal = tested on: UO-31 renal
MCF7 breast = tested on: MCF7 breast
HCC-2998 colon = tested on: HCC-2998 colon

SMILES	TGI (HT29 colon) [µM]	TGI (K-562 leukemia) [µM]	TGI (LOX IMVI melanoma) [µM]	TGI (M14 melanoma) [µM]	TGI (SF-268 CNS) [µM]	TGI (SF-295 CNS) [µM]	TGI (SK-MEL-5 melanoma) [µM]	TGI (UO-31 renal) [µM]	TGI (MCF7 breast) [µM]	GI50 (HCC-2998 colon) [µM]	TGI (HCC-2998 colon) [µM]	GI50 (HT29 colon) [µM]	GI50 (K-562 leukemia) [nM]	GI50 (LOX IMVI melanoma) [µM]	GI50 (M14 melanoma) [nM]	GI50 (SF-268 CNS) [µM]	GI50 (SF-295 CNS) [nM]	GI50 (SK-MEL-5 melanoma) [nM]	GI50 (UO-31 renal) [nM]	GI50 (MCF7 breast) [nM]
CC(=O)Oc1c(C)n(CCCl)ccc1=O	> 100	> 100	> 100	> 100	> 100	> 100	> 100	> 100	–	–	–	–	–	–	–	–	–	–	–	–
NC(N)=NC(CC(=O)O)c1ccccc1 (stereo not given)	> 100	> 100	> 100	> 100	> 100	> 100	> 100	> 100	> 100	–	–	–	–	–	–	–	–	–	–	–
OB([O][Hg][c]1ccccc1)[O][Hg][c]1ccccc1	1.75	4.96	0.366	0.977	2.5	3.17	1.85	1.63	–	1.86	3.36	0.384	234	0.173	283	1.06	1600	538	539	–
CC1=C(C(=O)Nc2ccccc2)C(c2ccc3c(c2)OCO3)C(C(=O)Nc2ccccc2)=C(C)N1	> 100	66	76.5	> 100	> 100	> 100	> 100	> 100	–	–	> 100	–	–	–	–	–	–	–	–	–
CCOC(=O)c1cccc(=O)c(C(=O)OCC)c1	> 100	> 100	–	> 100	–	–	> 100	> 100	–	–	> 100	–	–	–	–	–	–	–	–	–
Cc1cc(C)nc(NS(=O)(=O)c2ccc(Nc3c4ccccc4nc4c(C(=O)Nc5ccc(S(N)(=O)=O)cc5)cccc34)cc2)n1	> 100	> 100	> 100	> 100	> 100	> 100	> 100	> 100	–	–	–	–	–	–	–	–	–	–	–	–
O=S(=O)(O)CS(=O)(=O)OCCCl	> 100	> 100	> 100	> 100	> 100	> 100	> 100	> 100	–	–	> 100	–	–	–	–	–	–	–	–	–
O=S(=O)(c1ccc(NC(=S)N/N=C/c2ccccc2O)cc1)N1CCCCC1	> 68.8	–	0.109	2.78	6.9	3.45	0.176	> 41.9	–	–	–	–	–	–	–	–	–	–	–	–
O=c1c(Cl)nnc2sc3ccccc3n12	> 100	> 100	64.5	91.9	> 100	> 100	> 100	–	> 100	–	–	53.7	26000	30.5	22200	51.1	45600	37300	–	33600
N#Cc1ccccc1NC(=O)C(=O)C(C(=O)c1ccccc1-c1ccccc1)C1OC(=O)c2ccccc21 (stereo not given)	97.3	> 100	32.2	30.6	38.8	58.3	> 100	–	–	–	29.2	–	–	–	–	–	–	–	–	–
COc1ccc(/C=C2/CCCC/C2=N/O)cc1	> 100	–	> 100	> 100	> 100	> 100	–	> 100	–	–	> 100	–	–	–	–	–	–	–	–	–
CC1=C(C(=O)Nc2ccc([N+](=O)[O-])cc2)C(c2ccco2)C(C(=O)Nc2ccc([N+](=O)[O-])cc2)=C(C)N1	> 100	> 100	> 100	> 100	> 100	> 100	93.4	60.1	–	–	47.9	–	–	–	–	–	–	–	–	–
CCOC(=O)Cc1c(Cc2[nH]c(C(=O)OCc3ccccc3)c(CC(=O)OCC)c2CC(=O)OCC)[nH]c(C(=O)OCc2ccccc2)c1CC(=O)OCC	> 100	> 100	–	> 100	> 100	> 100	> 100	> 100	–	–	–	–	–	–	–	–	–	–	–	–
CCCCCCC(=O)C/C(CCC(=O)N(Cc1ccccc1)Cc1ccccc1)=N\Nc1ccc([N+](=O)[O-])cc1[N+](=O)[O-]	> 100	58.2	> 100	> 100	> 100	> 100	> 100	> 100	–	–	> 100	–	–	–	–	–	–	–	–	–
O=[N+]([O-])c1ccc(N/N=C\c2cc(Cl)ccc2O)nc1	> 100	> 100	8.47	7.27	22.9	11.7	8.25	5.45	> 100	–	–	4.9	2090	0.457	1190	0.595	2150	1810	300	2730
COc1cc2cc(Oc3ccc(NC(=O)Nc4cccc(C(F)(F)F)c4)cc3)c(C)nc2cc1OCCN1CCCCC1	–	3.11	–	3.27	–	3.24	3.16	2.79	3.33	–	–	–	802	–	1790	–	1800	1710	1450	1630
O=C1C2=C(c3ccccc31)C(c1ccc(Cl)cc1)N1C(=O)CCSC1=N2 (stereo not given)	> 100	> 100	–	> 100	> 100	> 100	> 100	> 100	–	–	> 100	–	–	–	–	–	–	–	–	–
C/C(=N\NC(=S)Nc1ccc(C(=O)O)cc1)c1ccccn1	> 100	> 100	> 100	28.7	> 100	> 100	32.8	39.8	–	–	32.7	–	–	–	–	–	–	–	–	–
O=C(Nc1ccncc1)C(=O)c1cn(S(=O)(=O)c2ccc(Br)cc2)c2ccccc12	> 100	> 100	> 100	> 100	> 100	> 100	37.5	> 100	–	23.6	> 100	2.82	2490	7.49	5740	8.47	2260	3500	> 100000	–
